{"source": "paper doi:10.1101/2023.07.01.547317v1", "about": "(biorxiv, 2023)", "biological_target": "MoIcl1 (Pyricularia oryzae, UniProt P0CT06)", "sequence (P0CT06 whole entry, looked up)": "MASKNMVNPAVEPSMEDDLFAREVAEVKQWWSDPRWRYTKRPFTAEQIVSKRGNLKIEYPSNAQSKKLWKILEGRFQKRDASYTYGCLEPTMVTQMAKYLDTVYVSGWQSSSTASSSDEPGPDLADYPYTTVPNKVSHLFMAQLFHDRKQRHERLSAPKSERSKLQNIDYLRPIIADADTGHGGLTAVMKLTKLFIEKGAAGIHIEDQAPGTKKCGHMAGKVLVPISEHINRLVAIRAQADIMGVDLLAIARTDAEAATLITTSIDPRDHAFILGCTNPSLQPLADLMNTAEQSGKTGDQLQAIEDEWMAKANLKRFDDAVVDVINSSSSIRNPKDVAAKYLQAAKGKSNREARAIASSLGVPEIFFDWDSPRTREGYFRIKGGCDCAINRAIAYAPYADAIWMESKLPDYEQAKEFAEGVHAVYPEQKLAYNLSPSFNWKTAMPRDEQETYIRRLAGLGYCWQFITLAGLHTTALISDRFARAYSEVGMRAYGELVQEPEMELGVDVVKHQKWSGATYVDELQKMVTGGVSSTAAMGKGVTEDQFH", "test": "biochemical", "format": "binding", "data": [{"smiles": "COc1ccc2[nH]cc(CCNC(C)=O)c2c1", "note": "[melatonin, N-acetyl-5-methoxytryptamine]", "values": [{"measurement": "Kd", "value": 287, "unit": "µM"}]}]}
